Reference: article PMC5380267 (Medicine, 2017)

Columns and labels:
[1] = Chronic allograft nephropathy diagnosis in renal transplant patients (protocol biopsies, Banff 97); conditions: EVR co-administration
Experimental: Protocol biopsies were performed and graded according to the Banff 97 classification.[29]

[2] = MPA pharmacokinetics in renal transplant patients on MMF (plasma HPLC-UV, Bayesian estimation of AUC); format: in vivo, human; conditions: for AUC(0-t) / Cmax: human, plasma; for AUC(0-t): MPA AUC(0–12); for Patients with MPA AUC outside the therapeutic window range: range 30–60 h mg/L
Source text: Anonymized medical records of 404 patients receiving immunosuppressant therapy after renal transplantation hospitalized at Limoges University Hospital (France) during the study period from 2011 to 2012 were reviewed. […] The patients were excluded if they received immunosuppression with other medicaments and underwent transplantation of other organs.
All patients received prednisolone orally by standard hospital practice.
According to the MMF daily dose, the study patients were allocated into the 3 study groups: the low MMF dose group received 1000 mg per day (28 patients); medium MMF dose group, 2000 mg per day (54 patients); and high MMF dose group, 3000 mg per day (18 patients).
Blood samples were collected in EDTA tubes at 20 minutes, 1 and 3 hours after the administration of MMF. Plasma was separated by centrifugation. […] Blood serum (500 μL), an internal standard (50 μL) (thiopental in methanol 1 g/L diluted with deproteinized water to 25 mg/L), and calibrators were acidified with hydrochloric acid and extracted with dichloromethane (5 mL). […] The organic fraction was then evaporated to dryness under a stream of nitrogen. The dry residue was reconstituted with 100-μL elution solvent (KH2PO4 buffer/acetonitrile [70/30 v/v] at pH = 2.6). Then, the sample (40 μL) was injected into the HPLC system with a steel column Nucleosil C18, 5 μm (250 × 4.6 mm, id) and with UV detection at 300 nm.

[3] = Low-dose MMF group, 1000 mg/day, EVR group

Structure (SMILES): CO[C@H]1C[C@@H]2CC[C@@H](C)[C@@](O)(O2)C(=O)C(=O)N2CCCC[C@H]2C(=O)O[C@H]([C@H](C)C[C@@H]2CC[C@@H](OCCO)[C@H](OC)C2)CC(=O)[C@H](C)/C=C(\C)[C@@H](O)[C@@H](OC)C(=O)[C@H](C)C[C@H](C)/C=C/C=C/C=C/1C [EVR, everolimus]
- Chronic allograft nephropathy diagnosed, patients ([1]; high MMF dose group (2 of 4)): 50.0%
- Chronic allograft nephropathy diagnosed, patients ([1]; in total): 64.7%
- Chronic allograft nephropathy diagnosed, patients ([1]; low MMF dose group (7 of 9)): 77.8%
- Chronic allograft nephropathy diagnosed, patients ([1]; medium MMF dose group (2 of 4)): 50.0%

Structure (SMILES): COc1c(C)c2c(c(O)c1C/C=C(\C)CCC(=O)O)C(=O)OC2 [MPA, mycophenolic acid]
- MPA AUC lower in low CsA dose group versus high CsA dose group ([2]; CsA 120–180 mg versus 240–300 mg): approximately 33%
- MPA C0, mean ± SD (range) ([2]; CsA + MMF group, all MMF doses (n = 83)): 1.00 ± 0.47 (0.00–2.00) mg/L
- MPA C0, mean ± SD (range) ([2]; EVR + MMF group, all MMF doses (n = 17)): 2.58 ± 1.43 (0.68–4.98) mg/L
- MPA C0, mean ± SD (range) ([2]; High-dose MMF group, 3000 mg/day, CsA group): 1.29 ± 0.47 (1.00–2.00) mg/L
- MPA C0, mean ± SD (range) ([2]; High-dose MMF group, 3000 mg/day, EVR group): 3.19 ± 1.60 (1.41–4.89) mg/L
- MPA C0, mean ± SD (range) ([2]; Low-dose MMF group, 1000 mg/day, CsA group): 0.58 ± 0.51 (0.00–1.00) mg/L
- MPA AUC(0–12), mean ± SD (range) [2, 3]: 31.89 ± 8.43 (20.82–42.25) h mg/L
- MPA C0, mean ± SD (range) [2, 3]: 1.61 ± 0.65 (0.68–2.24) mg/L
- MPA C0, mean ± SD (range) ([2]; Medium-dose MMF group, 2000 mg/day, EVR group): 4.17 ± 0.78 (3.12–4.98) mg/L
- AUC(0-t) ([2]; mean ± SD (range), CsA + MMF group, all MMF doses (n = 83)): 37900 ± 14100 ng·h/mL
- AUC(0-t) ([2]; mean ± SD (range), EVR + MMF group, all MMF doses (n = 17)): 47000 ± 21900 ng·h/mL
- AUC(0-t) ([2]; mean ± SD (range), High-dose MMF group, 3000 mg/day, CsA group): 44600 ± 14000 ng·h/mL
- AUC(0-t) ([2]; mean ± SD (range), High-dose MMF group, 3000 mg/day, EVR group): 59500 ± 18300 ng·h/mL
- AUC(0-t) ([2]; mean ± SD (range), Low-dose MMF group, 1000 mg/day, CsA group): 30600 ± 12700 ng·h/mL
- AUC(0-t) ([2]; mean ± SD (range), Medium-dose MMF group, 2000 mg/day, CsA group): 38700 ± 13700 ng·h/mL
- AUC(0-t) ([2]; mean ± SD (range), Medium-dose MMF group, 2000 mg/day, EVR group): 68700 ± 22700 ng·h/mL
- AUC(0-t) ([2]; mean ± SD, CsA + MMF, MMF 1000 mg/day, CsA 120–180 mg/day): 28100 ± 11000 ng·h/mL
- AUC(0-t) ([2]; mean ± SD, CsA + MMF, MMF 1000 mg/day, CsA 180–240 mg/day): 40500 ± 11000 ng·h/mL
- AUC(0-t) ([2]; mean ± SD, CsA + MMF, MMF 2000 mg/day, CsA 120–180 mg/day): 28800 ± 11100 ng·h/mL
- AUC(0-t) ([2]; mean ± SD, CsA + MMF, MMF 2000 mg/day, CsA 180–240 mg/day): 41800 ± 15600 ng·h/mL
- AUC(0-t) ([2]; mean ± SD, CsA + MMF, MMF 2000 mg/day, CsA 240–300 mg/day): 43000 ± 6270 ng·h/mL
- AUC(0-t) ([2]; mean ± SD, CsA + MMF, MMF 3000 mg/day, CsA 120–180 mg/day): 36200 ± 3700 ng·h/mL
- AUC(0-t) ([2]; mean ± SD, CsA + MMF, MMF 3000 mg/day, CsA 180–240 mg/day): 43400 ± 13100 ng·h/mL
- AUC(0-t) ([2]; mean ± SD, CsA + MMF, MMF 3000 mg/day, CsA 240–300 mg/day): 56800 ± 16800 ng·h/mL
- Cmax ([2]; MPA Cmax related to high-dose CsA, CsA >240 mg/day): > 10000 ng/mL
- Cmax ([2]; MPA Cmax, mean ± SD (range), CsA + MMF group, all MMF doses (n = 83)): 17600 ± 8510 ng/mL
- Cmax ([2]; MPA Cmax, mean ± SD (range), EVR + MMF group, all MMF doses (n = 17)): 14300 ± 6380 ng/mL
- Cmax ([2]; MPA Cmax, mean ± SD (range), High-dose MMF group, 3000 mg/day, CsA group): 21000 ± 7050 ng/mL
- Cmax ([2]; MPA Cmax, mean ± SD (range), Low-dose MMF group, 1000 mg/day, CsA group): 15500 ± 8930 ng/mL
- Cmax ([2]; MPA Cmax, mean ± SD (range), Low-dose MMF group, 1000 mg/day, EVR group): 10800 ± 4810 ng/mL
- Cmax ([2]; MPA Cmax, mean ± SD (range), Medium-dose MMF group, 2000 mg/day, CsA group): 17500 ± 8580 ng/mL
- Cmax ([2]; MPA Cmax, mean ± SD (range), Medium-dose MMF group, 2000 mg/day, EVR group): 17400 ± 7740 ng/mL
- Cmax ([2]; MPA Cmax, mean ± SD, CsA + MMF, MMF 1000 mg/day, CsA 120–180 mg/day): 12100 ± 5590 ng/mL
- Cmax ([2]; MPA Cmax, mean ± SD, CsA + MMF, MMF 1000 mg/day, CsA 180–240 mg/day): 22800 ± 10800 ng/mL
- Cmax ([2]; MPA Cmax, mean ± SD, CsA + MMF, MMF 2000 mg/day, CsA 120–180 mg/day): 13000 ± 6820 ng/mL
- Cmax ([2]; MPA Cmax, mean ± SD, CsA + MMF, MMF 2000 mg/day, CsA 180–240 mg/day): 17000 ± 8020 ng/mL
- Cmax ([2]; MPA Cmax, mean ± SD, CsA + MMF, MMF 2000 mg/day, CsA 240–300 mg/day): 22800 ± 8860 ng/mL
- Cmax ([2]; MPA Cmax, mean ± SD, CsA + MMF, MMF 3000 mg/day, CsA 120–180 mg/day): 19000 ± 5390 ng/mL
- Cmax ([2]; MPA Cmax, mean ± SD, CsA + MMF, MMF 3000 mg/day, CsA 180–240 mg/day): 22800 ± 8120 ng/mL
- Cmax ([2]; MPA Cmax, mean ± SD, CsA + MMF, MMF 3000 mg/day, CsA 240–300 mg/day): 21200 ± 8770 ng/mL
- MPA AUC(0–12) higher with MMF + EVR than with MMF + CsA ([2]; medium MMF dose (2000 mg)): 43%
- Patients with MPA AUC outside the therapeutic window range ([2]; MMF + CsA): 31.3%
- Patients with MPA AUC outside the therapeutic window range ([2]; MMF + EVR): 47.00%
- Patients with MPA AUC outside the therapeutic window range ([2]; all study patients): 34%
